The data set is described as follows: Pharmacokinetic study, subcutaneous vs IV administration, plasma levosimendan and OR-1896 by HPLC/MS/MS. Particulars: male, Sprague Dawley, rat, in vivo. How it is done: A pharmacokinetic study was conducted in male Sprague Dawley rats to compare subcutaneous administration of a composition of the present invention with IV administration of a formulation of levosimendan. The study evaluated levosimendan blood levels and pain at the injection site.
This study involved comparing the results of administering two subcutaneous compositions according to embodiments of the present invention to a previous pharmacokinetic study in which male rats were dosed by tail vein levosimendan as an IV bolus injection at 0.5 mg/kg using a 0.25 mg/ml solution. Thus, this study comprised three study arms: • a. IV administration of a composition comprising levosimendan (0.25 mg/ml) and phosphate buffer (10 mmolar), prepared in sterile water for injection and adjusted to a pH of 7.0 to 7.9 using 1 N NaOH or 10 N NaOH; this composition was administered at a dose of 0.5 mg/kg. • b. Subcutaneous administration of a composition comprising levosimendan (1.0 mg/ml), Captisol® (100 mg/ml), and phosphate buffer (10 mmolar), prepared in sterile water for injection and adjusted to a pH of 7.0 to 7.9 using 1 N NaOH or 10 N NaOH; this composition was administered at a dose of 0.5 mg/kg. • c. […]
Plasma samples were analyzed for levosimendan and OR-1896 (the primary metabolite) by HPLC/MS/MS. […]

For `C[C@@H]1CC(=O)NN=C1c1ccc(NN=C(C#N)C#N)cc1` [levosimendan, Levosimendan], the “start of the β phase (loss from blood mainly due to metabolism)” value was “about 2 hours”.
